In US20070298025A1, “Pharmaceutical Compositions and Methods for Reducing Body Fat” (Obe Therapy Biotechnology S.A.S., priority 2004, published 2007):
Counter-ions that a name gives are not always drawn. Non-standard residues stand in square brackets, D forms with d. Residues, ends and D or L forms follow the SMILES beside them. *: point of attachment. Boc = CC(C)(C)OC(=O)*; CH2Cl = ClC*

Assays:
enteropeptidase [1] = target: T1, enteropeptidase (Homo sapiens, UniProt P98073); assay: Trypsinogen activation assay; assay type: biochemical; set-up: purchased R&D Systems 1585-SE
T1 sequence (P98073 whole entry): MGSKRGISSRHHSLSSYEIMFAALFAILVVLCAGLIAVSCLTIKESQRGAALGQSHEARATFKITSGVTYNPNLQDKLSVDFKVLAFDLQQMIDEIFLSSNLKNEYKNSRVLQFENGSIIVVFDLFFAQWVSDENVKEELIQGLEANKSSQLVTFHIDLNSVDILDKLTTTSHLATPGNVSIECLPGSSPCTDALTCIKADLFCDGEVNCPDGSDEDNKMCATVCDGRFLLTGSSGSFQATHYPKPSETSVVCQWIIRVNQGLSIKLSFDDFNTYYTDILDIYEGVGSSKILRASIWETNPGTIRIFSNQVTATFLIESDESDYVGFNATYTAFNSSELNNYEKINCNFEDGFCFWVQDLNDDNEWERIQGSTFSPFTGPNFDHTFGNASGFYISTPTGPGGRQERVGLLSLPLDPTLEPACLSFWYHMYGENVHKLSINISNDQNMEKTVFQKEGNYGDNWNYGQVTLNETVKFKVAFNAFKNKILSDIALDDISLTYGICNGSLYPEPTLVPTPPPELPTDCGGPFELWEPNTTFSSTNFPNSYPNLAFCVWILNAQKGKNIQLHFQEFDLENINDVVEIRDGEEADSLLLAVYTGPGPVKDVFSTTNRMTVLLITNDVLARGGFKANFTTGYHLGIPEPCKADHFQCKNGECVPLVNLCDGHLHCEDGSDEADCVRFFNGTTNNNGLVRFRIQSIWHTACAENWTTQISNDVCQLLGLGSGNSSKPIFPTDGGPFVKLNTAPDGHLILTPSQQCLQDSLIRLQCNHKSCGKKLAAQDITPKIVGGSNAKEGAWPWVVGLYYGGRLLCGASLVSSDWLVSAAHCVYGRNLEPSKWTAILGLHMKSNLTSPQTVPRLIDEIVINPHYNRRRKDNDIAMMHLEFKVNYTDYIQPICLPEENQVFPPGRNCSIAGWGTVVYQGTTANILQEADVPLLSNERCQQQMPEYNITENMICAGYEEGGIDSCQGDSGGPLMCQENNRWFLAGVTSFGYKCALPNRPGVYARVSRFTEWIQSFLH
Description: In vitro Testing: the Trypsinogen Activation Assay
Material: The following component, used in the present trypsinogen activation assay may be purchased as follows:
In the first step, the enteropeptidase cleaves the trypsinogen in its active form, trypsin. Trypsin, in the second step, cleaves the N-CBZ-Gly-Pro-Arg-p-nitroanilide (pNA) into N-CBZ-Gly-Pro-Arg and p-nitroanilide (pNA). The amount of pNA can be measured at 405 nm, and reflects the amount of trypsin cleaved and thus the inhibitory activity of the molecules tested on the enteropeptidase.
In the first step, the following mix was prepared (50 μl final) • recombinant human enteropeptidase: 1.5 nM final • sodium citrate: […] • candidate molecule or control: 1 μl • trypsinogen: 2.5 μM final
The mix was incubated at room temperature during 10 minutes and the reaction was stopped with 5 μl of HCl 0.4 M.
In the second step, the previous mix was then incubated with a 50 μl mix comprising 1 mM of N-CBZ-Gly-Pro-Arg-pNA, Tris Hcl pH 8.4 20 mM final and NaCl-150 mM final, at room temperature for 10 minutes. The absorbance of the resulting mix was read at 405 nm.
Results are expressed as the percentage of inhibition, which is the absorbance at 405 nm of the reaction in the presence of different concentrations of inhibitor as compared to the value obtained in the absence of inhibitor.

pepsin = pepsin (Homo sapiens, UniProt P0DJD8); conditions: read-out: Ki (affinity for pepsin); cited from earlier work
pepsin, sequence (P0DJD8 63-388): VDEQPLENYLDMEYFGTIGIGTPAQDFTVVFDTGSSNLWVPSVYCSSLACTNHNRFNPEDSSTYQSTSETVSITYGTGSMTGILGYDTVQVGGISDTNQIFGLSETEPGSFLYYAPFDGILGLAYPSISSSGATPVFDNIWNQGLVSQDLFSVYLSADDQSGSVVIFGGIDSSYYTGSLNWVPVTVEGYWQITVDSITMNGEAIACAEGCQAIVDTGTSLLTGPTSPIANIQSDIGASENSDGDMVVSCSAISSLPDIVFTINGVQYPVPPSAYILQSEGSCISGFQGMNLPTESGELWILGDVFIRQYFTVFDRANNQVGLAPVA

enteropeptidase [2] = target: T1, enteropeptidase; assay: Test for enteropeptidase only (data not shown); assay type: biochemical
[3] = system: persons having hyperlipidemia; assay: Treating hyperlipidemia: fasting lipid profile study; assay type: in vivo, human; conditions: fasting (9-12 hours), versus control group
Protocol: Hyperlipidemia is an elevation of lipids in the bloodstream. These lipids include, for example, cholesterol and triglycerides. General hyperlipidemia is determined by the results of a lipid profile. The lipid profile includes LDL, HDL, triglycerides and total cholesterol measurements. A group of persons having hyperlipidemia with a total cholesterol level greater than 240 mg/dl, an HDL (high density lipid) of below 40 mg/ml, a triglyceride level of greater than 200 mg/dl and an LDL (low density lipid) level of over 160 mg/ml, after a 9 to 12 hours of fasting, are chosen for this study.
10 people are given a treatment of ritonavir at 600 mg taken twice a day. The other 10 people are given a placebo. The treatment continued for 2 months.
(§1) The study group is advised to follow their normal routine concerning their eating habits and exercise patterns, which is recorded 1 month prior to this study and throughout this study.
At the end of two months another fasting (9-12 hours) lipid profile is taken.
(§2) The same study in Example 8 is conducted with a larger group of people having hyperlipidemia. Each of the treated groups 1 to 7 is given as amprenavir, atazanavir, indinavir, lopinavir, fosamprenavir, nelfinavir or saquinavir in the same amounts as set forth in Example 3. The control group is given a placebo. At the end of two months another fasting (9-12 hours) lipid profile is taken.

[4] = system: people having Type II diabetes; assay: Treating Type II diabetes: blood glucose study; assay type: in vivo, human; conditions: versus control group (placebo)
Protocol: Type II diabetes is a disease in which the amount of insulin produced by the pancreas is inadequate to meet the body's needs and thus glucose, which is metabolized by insulin is not taken up normally from the blood into the body tissues. Therefore glucose in the blood rises. Type II diabetes is detected by a fasting glucose level of greater than 126 mg/dL measured on two occasions or one blood glucose level of greater than 200 mg/dL on one occasion or two random blood glucose levels of more than 200 mg/dL. Also a glucose tolerance test having a glucose level of more than 200 mg/dL 2 hours after drinking 75 grams of glucose also qualifies an individual as having Type II diabetes.
Two groups of 10 people are used in this study. The first given a treatment of ritonavir at 600 mg taken twice a day, while the other 10 people were given a placebo. The treatment continued for 2 months.
as §1
At the end of two months blood glucose levels and a glucose tolerance test are tested with all of the people in the study.
as §2, with “6” for “8”, “Type II diabetes.” for “hyperlipidemia.”

[5] = target: Recombinant human enteropeptidase (human, UniProt P98073 41-1019, limits assumed); assay: cell-based or functional assay
Recombinant human enteropeptidase, sequence (P98073 41-1019 E134Q/P732S limits assumed): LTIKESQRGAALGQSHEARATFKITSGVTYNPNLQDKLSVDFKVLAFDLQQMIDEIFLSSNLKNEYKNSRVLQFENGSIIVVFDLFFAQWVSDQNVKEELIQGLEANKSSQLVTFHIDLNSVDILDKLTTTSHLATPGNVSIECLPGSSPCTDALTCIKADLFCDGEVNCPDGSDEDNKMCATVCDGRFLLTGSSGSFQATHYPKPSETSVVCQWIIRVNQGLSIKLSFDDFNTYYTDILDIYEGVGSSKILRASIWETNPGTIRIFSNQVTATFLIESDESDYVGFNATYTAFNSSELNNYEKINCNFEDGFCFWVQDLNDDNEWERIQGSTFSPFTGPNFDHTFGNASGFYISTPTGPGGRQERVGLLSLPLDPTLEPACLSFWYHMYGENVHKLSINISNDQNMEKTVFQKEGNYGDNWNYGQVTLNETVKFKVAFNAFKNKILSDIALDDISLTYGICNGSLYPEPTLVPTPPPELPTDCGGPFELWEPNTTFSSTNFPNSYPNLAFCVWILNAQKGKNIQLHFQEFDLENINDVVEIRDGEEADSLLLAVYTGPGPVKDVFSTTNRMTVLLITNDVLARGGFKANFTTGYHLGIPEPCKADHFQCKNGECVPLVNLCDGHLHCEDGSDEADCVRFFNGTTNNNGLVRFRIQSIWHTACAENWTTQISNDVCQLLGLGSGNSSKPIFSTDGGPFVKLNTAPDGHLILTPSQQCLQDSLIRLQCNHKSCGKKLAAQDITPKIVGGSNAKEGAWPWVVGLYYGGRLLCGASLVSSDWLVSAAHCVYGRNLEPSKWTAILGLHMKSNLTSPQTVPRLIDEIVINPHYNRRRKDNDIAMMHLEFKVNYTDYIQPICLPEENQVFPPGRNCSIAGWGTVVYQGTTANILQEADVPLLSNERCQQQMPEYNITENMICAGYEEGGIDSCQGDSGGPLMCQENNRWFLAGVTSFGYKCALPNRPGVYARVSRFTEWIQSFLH

[6] = Example 9, groups 1 to 7, two months
[7] = Example 7, groups 1 to 7, two months

In the case of CC(=O)N[C@@H](CC(C)C)C(=O)N[C@H](C(=O)N[C@H](C=O)CCCCN)C(C)C [AC-Leu-Val-Lys-Aldhehyde] (Ac-Leu-Val-Lys-aldehyde), the IC50 (enteropeptidase [1]; trypsinogen activation assay, FIG. 6, enteropeptidase 1.5 nM, trypsinogen 2.5 μM) is reported as about 3000 nM.

In the case of CC(C)[C@H](NC(=O)[C@H](Cc1ccccc1)C[C@H](O)[C@H](Cc1ccccc1)NC(=O)OC(C)(C)C)C(=O)N[C@@H](Cc1ccccc1)C(=O)N1CCOCC1 [CGP 53437], the Ki (pepsin) is given as 8 nM.

In the case of N=C(N)NCCC[C@H](NC(=O)[C@@H]1CCCN1C(=O)[C@H](N)Cc1ccc(O)cc1)C(=O)CCl [H-D-Tyr-Pro-Arg-chloromethylketone trifluororoacetate salt] (H-[dY]-Pro-Arg-CH2Cl), the “IC50 when tested for enteropeptidase only, compared with the ones reported in FIG. 6” value (enteropeptidase [2]) is reported as “higher”.

With CC(C)CN(C[C@@H](O)[C@H](Cc1ccccc1)NC(=O)O[C@H]1CCOC1)S(=O)(=O)c1ccc(N)cc1 [amprenavir] the “levels of HDL” value [3, 6] was “higher”, the “levels of LDL” value [3, 6] was “significantly reduced” and the levels of cholesterol [3, 6] was “significantly reduced”. The levels of triglycerides [3, 6] was “significantly reduced” and the “levels of blood glucose” value [4, 7] was “significantly reduced”.

With COC(=O)N[C@H](C(=O)N[C@@H](Cc1ccccc1)[C@@H](O)CN(Cc1ccc(-c2ccccn2)cc1)NC(=O)[C@@H](NC(=O)OC)C(C)(C)C)C(C)(C)C [atazanavir] the “levels of HDL” value [3, 6] was “higher”, the “levels of LDL” value [3, 6] was “significantly reduced” and the levels of cholesterol [3, 6] was “significantly reduced”. For the same molecule, the levels of triglycerides [3, 6] was “significantly reduced” and the “levels of blood glucose” value [4, 7] was “significantly reduced”.

For CC(C)CN(C[C@@H](OP(=O)(O)O)[C@H](Cc1ccccc1)NC(=O)O[C@H]1CCOC1)S(=O)(=O)c1ccc(N)cc1 [fosamprenavir], the “levels of HDL” value [3, 6] was “higher”, the “levels of LDL” value [3, 6] was “significantly reduced” and the levels of cholesterol [3, 6] was “significantly reduced”. The levels of triglycerides [3, 6] was “significantly reduced” and the “levels of blood glucose” value [4, 7] was “significantly reduced”.

With CC(C)(C)NC(=O)[C@@H]1CN(Cc2cccnc2)CCN1C[C@@H](O)C[C@@H](Cc1ccccc1)C(=O)N[C@H]1c2ccccc2C[C@H]1O [indinavir] the “levels of HDL” value [3, 6] was “higher”, the “levels of LDL” value [3, 6] was “significantly reduced” and the levels of cholesterol [3, 6] was “significantly reduced”. The levels of triglycerides [3, 6] was “significantly reduced” and the “levels of blood glucose” value [4, 7] was “significantly reduced”.

In the case of Cc1cccc(C)c1OCC(=O)N[C@@H](Cc1ccccc1)[C@@H](O)C[C@H](Cc1ccccc1)NC(=O)[C@H](C(C)C)N1CCCNC1=O [lopinavir], the “levels of HDL” value [3, 6] is reported as “higher”, the “levels of LDL” value [3, 6] is reported as “significantly reduced” and the levels of cholesterol [3, 6] is reported as “significantly reduced”. The levels of triglycerides [3, 6] was “significantly reduced” and the “levels of blood glucose” value [4, 7] was “significantly reduced”.

In the case of Cc1c(O)cccc1C(=O)N[C@@H](CSc1ccccc1)[C@H](O)CN1C[C@H]2CCCC[C@H]2C[C@H]1C(=O)NC(C)(C)C [nelfinavir], the “levels of HDL” value [3, 6] is reported as “higher”, the “levels of LDL” value [3, 6] is reported as “significantly reduced” and the levels of cholesterol [3, 6] is reported as “significantly reduced”. The levels of triglycerides [3, 6] was “significantly reduced” and the “levels of blood glucose” value [4, 7] was “significantly reduced”.

For CC(C)c1nc(CN(C)C(=O)N[C@H](C(=O)N[C@@H](Cc2ccccc2)C[C@H](O)[C@H](Cc2ccccc2)NC(=O)OCc2cncs2)C(C)C)cs1 [ritonavir], the “levels of HDL” value ([3]; 600 mg twice a day, 2 months) was “higher”, the “levels of LDL” value ([3]; 600 mg twice a day, 2 months) was “significantly reduced” and the “levels of total cholesterol” value ([3]; 600 mg twice a day, 2 months) was “significantly reduced”. For the same molecule, the levels of triglycerides ([3]; 600 mg twice a day, 2 months) was “significantly reduced” and the “levels of blood glucose” value ([4]; 600 mg twice a day, 2 months) was “significantly reduced”.

In the case of CC(C)(C)NC(=O)[C@@H]1C[C@@H]2CCCC[C@@H]2CN1C[C@@H](O)[C@H](Cc1ccccc1)NC(=O)[C@H](CC(N)=O)NC(=O)c1ccc2ccccc2n1 [saquinavir], the “levels of HDL” value [3, 6] is reported as “higher”, the “levels of LDL” value [3, 6] is reported as “significantly reduced” and the levels of cholesterol [3, 6] is reported as “significantly reduced”. For the same molecule, the levels of triglycerides [3, 6] was “significantly reduced” and the “levels of blood glucose” value [4, 7] was “significantly reduced”.

Work on AC-Leu-Val-Lys-Aldhehyde (peptide) yielded an IC50 in the trypsinogen activation assay (percentage of inhibition, absorbance of pNA at 405 nM) [5] of 3 µM.

In the case of “BOC-Ala-Glu-Val-Asp-Aldehyde (Boc-AEVD-aldehyde; SMILES CC(C)[C@H](NC(=O)[C@H](CCC(=O)O)NC(=O)[C@H](C)NC(=O)OC(C)(C)C)C(=O)N[C@H](C=O)CC(=O)O) [negative control, Bachem N-1755]”, the inhibition (enteropeptidase [1]; tested at 10 μm) is reported as “no inhibition”.

For Z-Asp-Glu-Val-Asp-chloromethylketone, the inhibition (enteropeptidase [1]; tested at 50 μm) was “no inhibition” and the “IC50 when tested for enteropeptidase only, compared with the ones reported in FIG. 6” value (enteropeptidase [2]) was “higher”.

For {1,5‑dansyl}-Glu-Gly-Arg-CH2Cl (also: dihydrochloride salt) [1,5-Dansyl-Glu-Gly-Arg-chloromethylketone dihydrochloride], the “IC50 in the trypsinogen activation assay (percentage of inhibition, absorbance of pNA at 405 nM)” value [5] was about 24.7 nM.

For H-[dY]-Pro-Arg-CH2Cl (also: trifluoroacetate salt) [H-D-Tyr-Pro-Arg-chloromethylketone trifluororoacetate salt], the “IC50 in the trypsinogen activation assay (percentage of inhibition, absorbance of pNA at 405 nM)” value [5] was about 35 nM.
